The target of assay [1] is T1, human TLR7 (Homo sapiens, UniProt Q9NYK1).
T1 construct: host or cells: HEK-Blue cells
T1 sequence (Q9NYK1 27-1049): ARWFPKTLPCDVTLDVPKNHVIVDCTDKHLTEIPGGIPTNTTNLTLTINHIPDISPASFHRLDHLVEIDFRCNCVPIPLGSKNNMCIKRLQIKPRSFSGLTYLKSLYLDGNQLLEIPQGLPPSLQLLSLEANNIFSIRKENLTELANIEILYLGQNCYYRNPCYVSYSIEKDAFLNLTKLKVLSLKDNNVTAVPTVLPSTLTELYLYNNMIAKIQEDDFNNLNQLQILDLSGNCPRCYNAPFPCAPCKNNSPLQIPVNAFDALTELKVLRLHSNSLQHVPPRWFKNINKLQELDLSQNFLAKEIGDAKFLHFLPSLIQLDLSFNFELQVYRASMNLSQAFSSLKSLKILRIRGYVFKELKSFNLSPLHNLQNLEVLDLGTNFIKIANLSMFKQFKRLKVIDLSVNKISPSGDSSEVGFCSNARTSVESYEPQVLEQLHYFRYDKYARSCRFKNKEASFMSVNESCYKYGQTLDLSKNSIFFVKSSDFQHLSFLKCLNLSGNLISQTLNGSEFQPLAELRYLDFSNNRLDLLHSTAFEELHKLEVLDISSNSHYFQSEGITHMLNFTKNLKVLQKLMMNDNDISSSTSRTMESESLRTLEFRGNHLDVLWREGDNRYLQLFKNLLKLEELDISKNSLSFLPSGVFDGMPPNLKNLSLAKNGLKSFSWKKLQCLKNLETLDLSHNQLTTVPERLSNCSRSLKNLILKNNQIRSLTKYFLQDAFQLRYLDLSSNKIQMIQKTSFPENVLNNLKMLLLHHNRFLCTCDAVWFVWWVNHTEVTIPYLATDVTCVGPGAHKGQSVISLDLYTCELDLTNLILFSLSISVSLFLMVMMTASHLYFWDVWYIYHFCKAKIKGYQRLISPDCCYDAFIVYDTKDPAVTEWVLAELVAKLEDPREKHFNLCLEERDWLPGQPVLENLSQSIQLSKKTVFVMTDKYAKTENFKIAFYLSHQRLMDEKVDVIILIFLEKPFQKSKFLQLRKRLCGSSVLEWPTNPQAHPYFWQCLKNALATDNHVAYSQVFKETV
As to the kind of experiment: TLR7 inhibition reporter assay (HEK-Blue SEAP reporter). Type of assay: cell-based. Particulars: HEK-Blue cells overexpressing human TLR7; gardiquimod 7.5 μM; 22 hour incubation. As for the experimental part:
(§1) TLR7/8/9 Inhibition Reporter Assays
(§2) HEK-Blue™-cells (Invivogen) overexpressing human TLR7, TLR8 or TLR9 receptors were used for screening inhibitors of these receptors using an inducible SEAP (secreted embryonic alkaline phosphatase) reporter gene under the control of the IFN-β minimal promoter fused to five NF-κB and AP-1-binding sites. Briefly, cells are seeded into Greiner 384 well plates (15000 cells per well for TLR7, 20,000 for TLR8 and 25,000 for TLR9) and then treated with test compounds in DMSO to yield a final dose response concentration range of 0.05 nM-50 μM. After a 30 minute compound pre-treatment at room temperature, the cells are then stimulated with a TLR7 ligand (gardiquimod at a final concentration of 7.5 μM), TLR8 ligand (R848 at a final concentration of 15.9 μM) or TLR9 ligand (ODN2006 at a final concentration of 5 nM) to activate NF-κB and AP-1 which induce the production of SEAP. After a 22 hour incubation at 37° C., 5% CO2, SEAP levels are determined with the addition of HEK-Blue™ Detection reagent (Invivogen), a cell culture medium that allows for detection of SEAP, according to manufacturer's specifications. The percent inhibition is determined as the % reduction in the HEK-Blue signal present in wells treated with agonist plus DMSO alone compared to wells treated with a known inhibitor.

Assay [2] deals with T2, human TLR9 (Homo sapiens, UniProt Q9NR96).
T2 construct: host or cells: HEK-Blue cells
T2 sequence (Q9NR96 26-1032): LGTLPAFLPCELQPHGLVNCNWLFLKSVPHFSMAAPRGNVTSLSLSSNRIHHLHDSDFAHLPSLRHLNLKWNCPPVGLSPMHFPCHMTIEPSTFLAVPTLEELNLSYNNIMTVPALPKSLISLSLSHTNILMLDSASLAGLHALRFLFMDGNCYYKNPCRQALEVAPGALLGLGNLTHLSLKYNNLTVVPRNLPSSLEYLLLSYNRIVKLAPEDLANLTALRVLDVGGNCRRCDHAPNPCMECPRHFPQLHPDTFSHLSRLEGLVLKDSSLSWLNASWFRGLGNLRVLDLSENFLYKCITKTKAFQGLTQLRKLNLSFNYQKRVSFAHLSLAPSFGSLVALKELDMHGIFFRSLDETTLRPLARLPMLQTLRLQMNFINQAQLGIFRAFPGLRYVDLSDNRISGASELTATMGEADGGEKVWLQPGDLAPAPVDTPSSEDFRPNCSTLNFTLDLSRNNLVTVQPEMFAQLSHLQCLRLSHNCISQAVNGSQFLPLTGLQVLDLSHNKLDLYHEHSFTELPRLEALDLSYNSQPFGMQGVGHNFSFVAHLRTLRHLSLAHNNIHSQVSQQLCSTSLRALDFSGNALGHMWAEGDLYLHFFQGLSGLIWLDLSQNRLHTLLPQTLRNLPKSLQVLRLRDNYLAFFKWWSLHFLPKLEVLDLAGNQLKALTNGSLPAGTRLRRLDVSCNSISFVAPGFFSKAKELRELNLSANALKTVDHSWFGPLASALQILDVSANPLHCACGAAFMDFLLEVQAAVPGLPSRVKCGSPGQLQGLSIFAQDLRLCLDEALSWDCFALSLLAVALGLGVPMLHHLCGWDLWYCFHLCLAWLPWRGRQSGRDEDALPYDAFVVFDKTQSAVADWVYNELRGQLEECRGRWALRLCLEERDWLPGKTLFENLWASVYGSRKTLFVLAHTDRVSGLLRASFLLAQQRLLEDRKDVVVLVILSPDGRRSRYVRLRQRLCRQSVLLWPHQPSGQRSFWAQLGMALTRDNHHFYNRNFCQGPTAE
As to the kind of experiment: TLR9 inhibition reporter assay (HEK-Blue SEAP reporter). Type of assay: cell-based. Particulars: HEK-Blue cells overexpressing human TLR9; ODN2006 5 nM; 22 hour incubation. As for the experimental part: as §1, §2

As to `COc1ccc(-c2[nH]c3ccc(NC4CCC(NCCN(C)C)CC4)cc3c2C(C)C)cc1OC` (stereo not drawn) [Example 32, N1-(2-(3,4-dimethoxyphenyl)-3-isopropyl-1H-indol-5-yl)-N4-(2-(dimethylamino)ethyl)cyclohexane-1,4-diamine], the IC50 worked out at 191 nM in assay [1] and 610 nM in assay [2].
The corresponding values for `COc1ccc(-c2[nH]c3ccc(NC4CCC(N5CCN(CC(C)C)CC5)CC4)cc3c2C(C)C)cc1OC` (stereo not drawn) [Example 51, 2-(3,4-dimethoxyphenyl)-N-(4-(4-isobutylpiperazin-1-yl)cyclohexyl)-3-isopropyl-1H-indol-5-amine] are 767 nM and 1400 nM.
The like results for `CCc1c(-c2ccnc(C)c2)[nH]c2ccc(N3CCN(C4CCN(CC(C)C)CC4)CC3)cc12` [Example 152, 3-ethyl-5-(4-(1-isobutylpiperidin-4-yl)piperazin-1-yl)-2-(2-methylpyridin-4-yl)-1H-indole] were, in that order, 2220 nM and 342 nM.
The corresponding values for `COc1ccc(-c2[nH]c3ccc(NC4CCC(NCCCN(C)C)CC4)cc3c2C(C)C)cc1OC` (stereo not drawn) [Example 37, N1-(2-(3,4-dimethoxyphenyl)-3-isopropyl-1H-indol-5-yl)-N4-(3-(dimethylamino)propyl) cyclohexane-1,4-diamine] are 171 nM and 1430 nM.
For `CCc1c(-c2ccc(OC)c(OC)c2)[nH]c2ccc(N3CCCN(CCNC)CC3)cc12` [Example 178, 2-(4-(2-(3,4-dimethoxyphenyl)-3-ethyl-1H-indol-5-yl)-1,4-diazepan-1-yl)-N-methylethan-1-amine], the results for the IC50 in assay [1] and in assay [2] were 1040 nM and 2300 nM, respectively.
The corresponding values for `CCN1CCN(C2CCC(Nc3ccc4[nH]c(-c5ccc(OC)c(OC)c5)c(C(C)C)c4c3)CC2)CC1` (stereo not drawn) [Example 39, 2-(3,4-dimethoxyphenyl)-N-(4-(4-ethylpiperazin-1-yl)cyclohexyl)-3-isopropyl-1H-indol-5-amine] are 242 nM and 1230 nM.
With `CCc1c(-c2ccc(OC)c(OC)c2)[nH]c2ccc(N3CCCN(C4CCN(C)CC4)CC3)cc12` [Example 179, 2-(3,4-dimethoxyphenyl)-3-ethyl-5-(4-(1-methylpiperidin-4-yl)-1,4-diazepan-1-yl)-1H-indole], the values for the IC50 in assay [1] and in assay [2] were 831 nM and 1100 nM, respectively.
The like results for `CCc1c(-c2ccnc(OC)c2)[nH]c2ccc(N3CCN(CCNC)CC3)cc12` [Example 137, 2-(4-(3-ethyl-2-(2-methoxypyridin-4-yl)-1H-indol-5-yl)piperazin-1-yl)-N-methylethan-1-amine] were, in that order, 70 nM and 2960 nM.
The like results for `CCc1c(-c2ccc(OC)c(OC)c2)[nH]c2ccc(N3CCC(OC4CCNCC4)CC3)cc12` [Example 132, 2-(3,4-dimethoxyphenyl)-3-ethyl-5-(4-(piperidin-4-yloxy)piperidin-1-yl)-1H-indole] were, in that order, 250 nM and 1050 nM.
On to `COc1ccc(-c2[nH]c3ccc(NC4CCC(N5CCN(C)CC5)CC4)cc3c2C(C)C)cc1OC` (stereo not drawn) [Example 34, 2-(3,4-dimethoxyphenyl)-3-isopropyl-N-(4-(4-methylpiperazin-1-yl)cyclohexyl)-1H-indol-5-amine], for which the figures for the IC50 in assay [1] and in assay [2] were 281 nM and 769 nM, respectively.
The like results for `COc1ccc(-c2[nH]c3ccc(NC4CCC(N5CCN(Cc6ccc(C)cc6)CC5)CC4)cc3c2C(C)C)cc1OC` (stereo not drawn) [Example 66, 2-(3,4-dimethoxyphenyl)-3-isopropyl-N-(4-(4-(4-methylbenzyl)piperazin-1-yl)cyclohexyl)-1H-indol-5-amine] were, in that order, 686 nM and 583 nM.
The corresponding values for `COc1ccc(-c2[nH]c3ccc(N4CCC(C5CCN(Cc6ccsc6)CC5)CC4)cc3c2C(C)C)cc1OC` [Example 98, 2-(3,4-dimethoxyphenyl)-3-isopropyl-5-(1′-(thiophen-3-ylmethyl)-[4, 4′-bipiperidin]-1-yl)-1H-indole] are 181 nM and 1520 nM.
The corresponding values for `COc1ccc(-c2[nH]c3ccc(NC4CCC(N5CCN(C(C)=O)CC5)CC4)cc3c2C(C)C)cc1OC` (single isomer, unassigned) [Example 44, 1-(4-(4-((2-(3,4-dimethoxyphenyl)-3-isopropyl-1H-indol-5-yl)amino)cyclohexyl)piperazin-1-yl)ethan-1-one] are 375 nM and 4070 nM.
With `COc1ccc(-c2[nH]c3ccc(NC4CCC(N5CCN(CCN6CCCC6)CC5)CC4)cc3c2C(C)C)cc1OC` (stereo not drawn) [Example 64, 2-(3,4-dimethoxyphenyl)-3-isopropyl-N-(4-(4-(2-(pyrrolidin-1-yl)ethyl)piperazin-1-yl)cyclohexyl)-1H-indol-5-amine], the IC50 came out at 357 nM in assay [1] and 555 nM in assay [2].
On to `COc1ccc(-c2[nH]c3ccc(NC4CCC(N5CCC(N(C)C)CC5)CC4)cc3c2C(C)C)cc1OC` (stereo not drawn) [Example 46, 2-(3,4-dimethoxyphenyl)-N-(4-(4-(dimethylamino)piperidin-1-yl)cyclohexyl)-3-isopropyl-H-indol-5-amine], for which the IC50 in assay [1] is 1050 nM; in assay [2], 817 nM.
The like results for `COc1ccc(-c2[nH]c3ccc(NC4CCC(NCCN(C)C)CC4)cc3c2C(C)C)cc1OC` (stereo not drawn) [Example 33, N1-(2-(3,4-dimethoxyphenyl)-3-isopropyl-1H-indol-5-yl)-N4-(2-(dimethylamino)ethyl)cyclohexane-1,4-diamine] were, in that order, 136 nM and 650 nM.
The corresponding values for `COc1ccc(-c2[nH]c3ccc(NC4CCC(N5CCN(CCN6CCCC6)CC5)CC4)cc3c2C(C)C)cc1OC` (stereo not drawn) [Example 63, 2-(3,4-dimethoxyphenyl)-3-isopropyl-N-(4-(4-(2-(pyrrolidin-1-yl)ethyl)piperazin-1-yl)cyclohexyl)-1H-indol-5-amine] are 257 nM and 405 nM.
The like results for `CCc1c(-c2ccc(OC)c(OC)c2)[nH]c2ccc(NC3CCN(C4CCN(C)CC4)CC3)cc12` [Example 125, 2-(3,4-dimethoxyphenyl)-3-ethyl-N-(1′-methyl-[1,4′-bipiperidin]-4-yl)-1H-indol-5-amine] were, in that order, 376 nM and 758 nM.
